How the values were obtained:
[1] = Biodistribution of Copper-67 complex of (5); format: in vivo, Balb/c mice; settings: for biodistribution L. Int. / biodistribution S. Int. / biodistribution blood / biodistribution bone / biodistribution brain / biodistribution heart / biodistribution kidney / biodistribution liver / biodistribution lung / biodistribution muscle / biodistribution pancreas / biodistribution skin / biodistribution spleen / biodistribution stomach / biodistribution tail / biodistribution urine: 67Cu, mice
Method: (§1) A typical procedure involved the dissolving Cu-67 20 μl of original stock in an acetate buffer (0.2 M; pH 4.5) to a total volume of 500 μl. To this solution was added 500 μl of the ligand (20 mg/ml) solution in acetate buffer. The mixture was then left to react at 37° C. for 20 minutes. ITLC confirmed the labelling was greater than >95%.
The biodistribution of the copper-67 complex of ligand (5) was evaluated in balb/c mice (5 animals per time point) at 1, 3, 5, 10, 30 minute time intervals.

[2] = Radiolabelling of chelators with 64Cu and 67Cu; format: physicochemical; settings: ligand:metal ratio 4:1, ITLC
Method: as §1

[3] = Serum stability of 166Dy/166Ho complex of (1); format: in vitro ADME; settings: human serum, 37° C.
Method: The radiolabelling (1) is then incubated in human serum at 37° C. At various time intervals the aliquots are separated and monitored for UV absorbance and radioactivity. The data illustrated in FIG. 31 show the complex is stable for >46 hrs.

[4] = Serum stability of 99mTc complex of (1); format: in vitro ADME; settings: first hour at 37° C., read-out: technetium lost from the chelator in serum
Method: A typical method of radiolabelling of the chelator was achieved by dissolving the chelator in a basic solution of saline. The pH was then adjusted to approx. 6 with HCl. Excess stannous chloride was added to the resultant solution followed by one equivalent volume of sodium ^99m TcO4 (10-50 mCi/ml). Final concentration of the chelator was approx. 1 mg/ml. The efficacy of labelling was determined by ITLC-SG. For each product only one main radiochemical species was observed. Each complex was diluted to 15 μCi/100 μl with saline. […] (See FIGS. 1A and 1B).

[5] = Cu-67, over the 30 minute period

For Nc1ccc(O)c(NC(=O)CN(CCN(CC(=O)O)CC(=O)Nc2cc(N)ccc2O)CC(=O)O)c1 [Compound 5], the “biodistribution L. Int.” value ([1]; 1 min) was 0.35 % Injected dose, the “biodistribution S. Int.” value ([1]; 1 min) was 0.50 % Injected dose and the biodistribution blood ([1]; 1 min) was 5.86 % Injected dose. It also gave a biodistribution bone ([1]; 1 min) of 5.46 % Injected dose, a biodistribution brain ([1]; 1 min) of 0.23 % Injected dose and a biodistribution heart ([1]; 1 min) of 0.27 % Injected dose. For the same molecule, the biodistribution kidney ([1]; 1 min) was 8.35 % Injected dose, the biodistribution liver ([1]; 1 min) was 5.71 % Injected dose and the biodistribution lung ([1]; 1 min) was 0.85 % Injected dose. For the same molecule, the biodistribution muscle ([1]; 1 min) was 13.69 % Injected dose, the biodistribution pancreas ([1]; 1 min) was 0.20 % Injected dose and the biodistribution skin ([1]; 1 min) was 9.61 % Injected dose. It also gave a biodistribution spleen ([1]; 1 min) of 0.18 % Injected dose, a biodistribution stomach ([1]; 1 min) of 0.52 % Injected dose and a biodistribution tail ([1]; 1 min) of 8.27 % Injected dose. For the same molecule, the biodistribution urine ([1]; 1 min) was 0.35 % Injected dose, the “biodistribution L. Int.” value ([1]; 3 min) was 0.75 % Injected dose and the “biodistribution S. Int.” value ([1]; 3 min) was 1.10 % Injected dose. The biodistribution blood ([1]; 3 min) was 4.76 % Injected dose, the biodistribution bone ([1]; 3 min) was 3.35 % Injected dose and the biodistribution brain ([1]; 3 min) was 0.22 % Injected dose. For the same molecule, the biodistribution heart ([1]; 3 min) was 0.28 % Injected dose, the biodistribution kidney ([1]; 3 min) was 5.65 % Injected dose and the biodistribution liver ([1]; 3 min) was 8.48 % Injected dose. For the same molecule, the biodistribution lung ([1]; 3 min) was 1.20 % Injected dose, the biodistribution muscle ([1]; 3 min) was 18.00 % Injected dose and the biodistribution pancreas ([1]; 3 min) was 0.11 % Injected dose. The biodistribution skin ([1]; 3 min) was 19.21 % Injected dose, the biodistribution spleen ([1]; 3 min) was 0.19 % Injected dose and the biodistribution stomach ([1]; 3 min) was 0.93 % Injected dose. The biodistribution tail ([1]; 3 min) was 5.19 % Injected dose, the biodistribution urine ([1]; 3 min) was 1.98 % Injected dose and the “biodistribution L. Int.” value ([1]; 5 min) was 0.54 % Injected dose. For the same molecule, the “biodistribution S. Int.” value ([1]; 5 min) was 1.08 % Injected dose, the biodistribution blood ([1]; 5 min) was 4.05 % Injected dose and the biodistribution bone ([1]; 5 min) was 2.74 % Injected dose. The biodistribution brain ([1]; 5 min) was 0.23 % Injected dose, the biodistribution heart ([1]; 5 min) was 0.19 % Injected dose and the biodistribution kidney ([1]; 5 min) was 4.99 % Injected dose. It also gave a biodistribution liver ([1]; 5 min) of 9.04 % Injected dose, a biodistribution lung ([1]; 5 min) of 1.10 % Injected dose and a biodistribution muscle ([1]; 5 min) of 11.95 % Injected dose. It also gave a biodistribution pancreas ([1]; 5 min) of 0.12 % Injected dose, a biodistribution skin ([1]; 5 min) of 16.23 % Injected dose and a biodistribution spleen ([1]; 5 min) of 0.16 % Injected dose. For the same molecule, the biodistribution stomach ([1]; 5 min) was 0.87 % Injected dose, the biodistribution tail ([1]; 5 min) was 5.36 % Injected dose and the biodistribution urine ([1]; 5 min) was 3.72 % Injected dose. The “biodistribution L. Int.” value ([1]; 10 min) was 0.79 % Injected dose, the “biodistribution S. Int.” value ([1]; 10 min) was 0.90 % Injected dose and the biodistribution blood ([1]; 10 min) was 2.33 % Injected dose. It also gave a biodistribution brain ([1]; 10 min) of 0.19 % Injected dose, a biodistribution heart ([1]; 10 min) of 0.18 % Injected dose and a biodistribution kidney ([1]; 10 min) of 4.48 % Injected dose. The biodistribution liver ([1]; 10 min) was 11.79 % Injected dose, the biodistribution lung ([1]; 10 min) was 1.20 % Injected dose and the biodistribution muscle ([1]; 10 min) was 8.38 % Injected dose. For the same molecule, the biodistribution pancreas ([1]; 10 min) was 0.34 % Injected dose, the biodistribution skin ([1]; 10 min) was 16.46 % Injected dose and the biodistribution spleen ([1]; 10 min) was 0.16 % Injected dose. It also gave a biodistribution stomach ([1]; 10 min) of 0.80 % Injected dose, a biodistribution tail ([1]; 10 min) of 3.45 % Injected dose and a biodistribution urine ([1]; 10 min) of 4.71 % Injected dose. For the same molecule, the “biodistribution L. Int.” value ([1]; 30 min) was 0.31 % Injected dose, the “biodistribution S. Int.” value ([1]; 30 min) was 0.71 % Injected dose and the biodistribution blood ([1]; 30 min) was 2.12 % Injected dose. The biodistribution bone ([1]; 30 min) was 2.05 % Injected dose, the biodistribution brain ([1]; 30 min) was 0.54 % Injected dose and the biodistribution heart ([1]; 30 min) was 0.20 % Injected dose. The biodistribution kidney ([1]; 30 min) was 3.38 % Injected dose, the biodistribution liver ([1]; 30 min) was 17.10 % Injected dose and the biodistribution lung ([1]; 30 min) was 1.29 % Injected dose. It also gave a biodistribution muscle ([1]; 30 min) of 7.45 % Injected dose, a biodistribution pancreas ([1]; 30 min) of 0.34 % Injected dose and a biodistribution skin ([1]; 30 min) of 14.14 % Injected dose. It also gave a biodistribution spleen ([1]; 30 min) of 0.19 % Injected dose, a biodistribution stomach ([1]; 30 min) of 1.22 % Injected dose and a biodistribution tail ([1]; 30 min) of 1.51 % Injected dose. The biodistribution urine ([1]; 30 min) was 1.33 % Injected dose, the “clearance from the kidneys, blood and urine” value [1, 5] was “clears from the kidneys, blood and urine over the 30 minute period” and the “uptake in the liver” value [1, 5] was “active uptake of the complex in the liver”.
In the case of O=C(O)CN(CCN(CC(=O)O)CC(=O)Nc1ccccc1O)CC(=O)Nc1ccccc1O [Compound 1], the “efficiency of labelling with Cu-67” value [2] is reported as greater than 95%, the “serum stability (complex is stable for)” value [3] is reported as greater than 46 h and the degraded at 1 h [4] is reported as no more than 15%.

From US5807535A, “Metal complexes of hydroxyaryl containing aminocarboxylic acid chelating agents” (Australian Nuclear Science & Technology Organisation, priority 1992, dated 1998)
